Assay [1] concerns the target Aldo-keto reductase family 1 member B1 (Rattus norvegicus, UniProt P07943). Kind of assay: In vitro inhibitory activity against aldose reductase (ALR2) from rat lens extraction.
Assay [2] addresses T1, Glutathione reductase (Saccharomyces cerevisiae S288c, UniProt P41921).
T1 sequence (P41921 whole entry): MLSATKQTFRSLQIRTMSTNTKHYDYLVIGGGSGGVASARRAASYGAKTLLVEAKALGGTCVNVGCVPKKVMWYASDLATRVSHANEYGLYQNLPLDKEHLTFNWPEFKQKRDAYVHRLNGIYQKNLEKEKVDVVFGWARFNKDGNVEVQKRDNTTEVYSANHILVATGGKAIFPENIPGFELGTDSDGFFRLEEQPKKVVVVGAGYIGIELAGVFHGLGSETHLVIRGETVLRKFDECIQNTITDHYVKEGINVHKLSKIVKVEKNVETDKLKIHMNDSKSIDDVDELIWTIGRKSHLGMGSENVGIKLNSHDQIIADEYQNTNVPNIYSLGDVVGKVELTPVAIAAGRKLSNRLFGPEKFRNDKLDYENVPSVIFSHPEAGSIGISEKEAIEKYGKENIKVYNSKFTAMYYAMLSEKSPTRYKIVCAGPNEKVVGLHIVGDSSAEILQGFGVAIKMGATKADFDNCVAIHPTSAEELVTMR
Kind of assay: In vitro inhibitory activity against glutathione reductase (GR) from bakers yeast; Not active.

Assay [3] addresses T2, Aldo-keto reductase family 1 member A1 (Rattus norvegicus, UniProt P51635).
T2 sequence (P51635 whole entry): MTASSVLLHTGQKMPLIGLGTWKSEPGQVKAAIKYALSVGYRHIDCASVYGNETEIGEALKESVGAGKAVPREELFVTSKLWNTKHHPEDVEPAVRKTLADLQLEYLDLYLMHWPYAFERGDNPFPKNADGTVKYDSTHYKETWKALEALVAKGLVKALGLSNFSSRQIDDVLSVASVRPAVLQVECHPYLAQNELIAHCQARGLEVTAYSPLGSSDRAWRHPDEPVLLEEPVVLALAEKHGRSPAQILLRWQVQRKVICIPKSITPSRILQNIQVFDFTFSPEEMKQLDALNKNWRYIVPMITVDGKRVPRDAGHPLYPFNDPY
Nature of the assay: In vitro inhibitory activity against aldehyde reductase 1 (ALR1) from rat kidney.

A short description of assay [4]: In vitro inhibitory activity against sorbitol dehydrogenase (SD) from sheep liver; Not active.
The species entered for assay [5] is Rattus norvegicus. Nature of the assay: Ability to prevent cataract development in severly galactosemic rat treated with 3 percent ophthalmic solution on day 20. The assay is classed as functional.
The species named for assay [6] is Rattus norvegicus. Nature of the assay: Ability to prevent cataract development in severly galactosemic rat treated with 3 percent ophthalmic solution on day 13. The assay is classed as functional.
Assay [7] is filed under the species Rattus norvegicus. Nature of the assay: Ability to prevent cataract development in severly galactosemic rat treated with 3 percent ophthalmic solution on day 17. The assay is classed as functional.
The species entered for assay [8] is Rattus norvegicus. Kind of assay: Ability to prevent cataract development in severly galactosemic rat treated with 3 percent ophthalmic solution on day 16. The assay is classed as functional.
Assay [9] is filed under the species Rattus norvegicus. Nature of the assay: Ability to prevent cataract development in severly galactosemic rat treated with 3 percent ophthalmic solution on day 15. The assay is classed as functional.
The species named for assay [10] is Rattus norvegicus. Kind of assay: Ability to prevent cataract development in severly galactosemic rat treated with 3 percent ophthalmic solution on day 11. The assay is classed as functional.
For assay [11], the species on record is Rattus norvegicus. Nature of the assay: Ability to prevent cataract development in severly galactosemic rat treated with 3 percent ophthalmic solution on day 14. In kind it is functional.
The species named for assay [12] is Rattus norvegicus. Nature of the assay: Ability to prevent cataract development in severly galactosemic rat treated with 3 percent ophthalmic solution on day 12. The assay is classed as functional.
Assay [13] is filed under the species Rattus norvegicus. Kind of assay: Ability to prevent cataract development in severly galactosemic rat treated with 3 percent ophthalmic solution on day 19. The assay is classed as functional.
The species named for assay [14] is Rattus norvegicus. Nature of the assay: Ability to prevent cataract development in severly galactosemic rat treated with 3 percent ophthalmic solution on day 21. In kind it is functional.
The species entered for assay [15] is Rattus norvegicus. Kind of assay: Ability to prevent cataract development in severly galactosemic rat treated with 3 percent ophthalmic solution on day 18. In kind it is functional.
Assay [16] deals with T1, Glutathione reductase. Nature of the assay: In vitro inhibitory activity against glutathione reductase (GR) from bakers yeast.
The species named for assay [17] is Rattus norvegicus. Kind of assay: Ability to prevent cataract development in severly galactosemic rat treated with 1 percent ophthalmic solution on day 16. In kind it is functional.
The species entered for assay [18] is Rattus norvegicus. Kind of assay: Ability to prevent cataract development in severly galactosemic rat treated with 1 percent ophthalmic solution on day 21. The assay is classed as functional.
The species named for assay [19] is Rattus norvegicus. Kind of assay: Ability to prevent cataract development in severly galactosemic rat treated with 1 percent ophthalmic solution on day 15. The assay is classed as functional.
The species named for assay [20] is Rattus norvegicus. Kind of assay: Ability to prevent cataract development in severly galactosemic rat treated with 1 percent ophthalmic solution on day 11. The assay is classed as functional.
The species named for assay [21] is Rattus norvegicus. Nature of the assay: Ability to prevent cataract development in severly galactosemic rat treated with 1 percent ophthalmic solution on day 20. The assay is classed as functional.
The species named for assay [22] is Rattus norvegicus. Nature of the assay: Ability to prevent cataract development in severly galactosemic rat treated with 1 percent ophthalmic solution on day 18. In kind it is functional.
The species entered for assay [23] is Rattus norvegicus. Nature of the assay: Ability to prevent cataract development in severly galactosemic rat treated with 1 percent ophthalmic solution on day 13. The assay is classed as functional.
The species entered for assay [24] is Rattus norvegicus. Kind of assay: Ability to prevent cataract development in severly galactosemic rat treated with 1 percent ophthalmic solution on day 19. In kind it is functional.
Assay [25] is filed under the species Rattus norvegicus. Kind of assay: Ability to prevent cataract development in severly galactosemic rat treated with 1 percent ophthalmic solution on day 14. The assay is classed as functional.
The species entered for assay [26] is Rattus norvegicus. Nature of the assay: Ability to prevent cataract development in severly galactosemic rat treated with 1 percent ophthalmic solution on day 17. The assay is classed as functional.
The species entered for assay [27] is Rattus norvegicus. Nature of the assay: Ability to prevent cataract development in severly galactosemic rat treated with 1 percent ophthalmic solution on day 12. The assay is classed as functional.

The results in this text go back to ChEMBL document CHEMBL1136757 (J Med Chem, 2003).

Molecules are shown by their SMILES. “And” between values parts separate entries of the source, which are not always exact repeats. Identical values can stand only once.

Usually IC50 stands for the concentration that inhibits the measured activity by half. Read a high IC50 as lower potency. In the case of `Cc1ccc(CN2C(=O)C(C(C#N)C(=O)O)c3ccccc32)cc1` (centres undefined), the IC50 in assay [1] is 640 nM and 460 nM; against Glutathione reductase [2], “Not Active”; in assay [3], 3570 nM; in assay [4] it was “Not Active”.
On to `COc1ccc(CN2C(=O)C(C(C#N)C(=O)O)c3cc(F)ccc32)cc1` (centres undefined), for which inhibition in assay [1] was half-maximal at 110 nM (IC50).
As to `N#CC(C(=O)O)C1C(=O)Nc2ccc(F)cc21` (centres undefined), the IC50 in assay [1] was 280 nM; against Glutathione reductase [2] it was “Not Active”; in assay [3], 6790 nM; in assay [4], “Not Active”.
In assay [1], `COc1ccc(CN2C(=O)C(C(C#N)C(=O)O)c3ccccc32)cc1` (centres undefined) registered an IC50 of 630 nM.
Same read-out and setting: the value for `N#CC(C(=O)O)C1C(=O)Nc2ccc(Br)cc21` (centres undefined) was 380 nM; that for `CCCN1C(=O)C(C(C#N)C(=O)O)c2cc(F)ccc21` (centres undefined) was 280 nM.
Still for that read-out and setting: the value for `N#CC(C(=O)O)C1C(=O)N(CCCl)c2ccc(F)cc21` (centres undefined) was 1340 nM; that for `N#CC(C(=O)O)C1C(=O)N(Cc2ccccc2)c2ccc(F)cc21` (centres undefined) was 180 nM; that for `N#CC(C(=O)O)C1C(=O)Nc2ccc([N+](=O)[O-])cc21` (centres undefined) was 1200 nM.
`Cc1ccc(CN2C(=O)C(C(C#N)C(=O)O)c3cc(Br)ccc32)cc1` (centres undefined) registered a concentration for half-maximal inhibition (IC50) in [1] of 250 nM.
Regarding `Cc1ccc(CN2C(=O)C(C(C#N)C(=O)O)c3cc(F)ccc32)cc1` (centres undefined), the Nuclear cataract stood at 96% in the assay listed under Rattus norvegicus [5]; 0% in the assay filed under Rattus norvegicus [6]; 57% in the assay listed under Rattus norvegicus [7]; 57% in the assay listed under Rattus norvegicus [8]; 43% in the assay filed under Rattus norvegicus [9]; 0% in the assay listed under Rattus norvegicus [10]. The Nuclear cataract in the assay filed under Rattus norvegicus [11] was 18%; in the assay listed under Rattus norvegicus [12], 0%; in the assay listed under Rattus norvegicus [13], 84%; in the assay listed under Rattus norvegicus [14], 100%; in the assay listed under Rattus norvegicus [15] it was 72%. For the same compound, the IC50 in assay [1] is 75 nM and 42 nM; at Glutathione reductase [2], “Not Active”; in assay [3], 690 nM.
Turning to `N#CC(C(=O)O)C1C(=O)Nc2ccccc21` (centres undefined), in assay [1], inhibition was half-maximal at 850 nM (IC50).
In the case of `Cc1ccc(CN2C(=O)C(C(C#N)C(=O)OC(C)C)c3cc(F)ccc32)cc1` (centres undefined), the Nuclear cataract came to 8% in the assay filed under Rattus norvegicus [5]; 0% in the assay filed under Rattus norvegicus [6]; 0% in the assay listed under Rattus norvegicus [7]; 0% in the assay listed under Rattus norvegicus [8]; 0% in the assay listed under Rattus norvegicus [9]; 0% in the assay listed under Rattus norvegicus [10]. Further, the Nuclear cataract in the assay filed under Rattus norvegicus [11] turned out to be 0%; in the assay listed under Rattus norvegicus [12] it was 0%; in the assay filed under Rattus norvegicus [13], 8%; in the assay listed under Rattus norvegicus [14] it was 8%; in the assay listed under Rattus norvegicus [15], 0%.
Regarding `N#CC(C(=O)O)C1C(=O)N(Cc2ccccc2)c2ccccc21` (centres undefined), half-maximal inhibition in assay [1] (IC50) was put at 3200 nM.
In the case of `N#CC(C(=O)O)C1C(=O)N(Cc2ccc(C(F)(F)F)cc2)c2ccccc21` (centres undefined), the IC50 in assay [1] was 570 nM.
For `N#CC(C(=O)O)C1C(=O)N(Cc2ccc(F)cc2)c2ccc(F)cc21` (centres undefined), the IC50 in assay [1] was 130 nM and 58 nM; against Glutathione reductase [2], “Not Active”; in assay [3], 490 nM; in [4], “Not Active”.
Turning to `N#CC(C(=O)O)C1C(=O)N(Cc2ccc(F)cc2)c2ccccc21` (centres undefined), in [1], it took 570 nM to reach half-maximal inhibition (IC50).
The same measure, in the same setting: then `COc1ccc2c(c1)C(C(C#N)C(=O)O)C(=O)N2` (centres undefined), with 5400 nM.
As for `CN1C(=O)C(C(C#N)C(=O)O)c2cc(F)ccc21` (centres undefined), in assay [1], the IC50 turned out to be 390 nM.
`N#CC(C(=O)O)C1C(=O)N(Cc2ccc(C(F)(F)F)cc2)c2ccc(F)cc21` (centres undefined): the IC50 in [1] is 280 nM.
On to `O=c1c(O)c(-c2ccc(O)c(O)c2)oc2cc(O)cc(O)c12` [QUERCETIN], for which it took 48.8 µM to reach half-maximal inhibition against Glutathione reductase [16] (IC50).
As to `O=C1NC(=O)[C@@]2(CCOc3ccc(F)cc32)N1` [SORBINIL], the IC50 result at Glutathione reductase [2] is “Not Active”.
In the case of `COc1ccc2c(C(=S)N(C)CC(=O)O)cccc2c1C(F)(F)F` [TOLRESTAT], the Nuclear cataract in the assay filed under Rattus norvegicus [5] was determined as 0%; in the assay filed under Rattus norvegicus [6], 0%; in the assay filed under Rattus norvegicus [17], 32%; in the assay filed under Rattus norvegicus [18] it was 47%; in the assay listed under Rattus norvegicus [19] it was 32%; in the assay listed under Rattus norvegicus [20], 0%. Also, the Nuclear cataract worked out at 0% in the assay listed under Rattus norvegicus [7]; 47% in the assay listed under Rattus norvegicus [21]; 43% in the assay filed under Rattus norvegicus [22]; 0% in the assay filed under Rattus norvegicus [8]; 0% in the assay listed under Rattus norvegicus [23]; 0% in the assay listed under Rattus norvegicus [9]. The Nuclear cataract is listed as 0% in the assay listed under Rattus norvegicus [10]; 0% in the assay filed under Rattus norvegicus [11]; 43% in the assay filed under Rattus norvegicus [24]; 23% in the assay filed under Rattus norvegicus [25]; 0% in the assay listed under Rattus norvegicus [12]; 0% in the assay listed under Rattus norvegicus [13]. Moreover, the Nuclear cataract in the assay filed under Rattus norvegicus [14] is 0%; in the assay listed under Rattus norvegicus [26], 32%; in the assay filed under Rattus norvegicus [15] it was 0%; in the assay listed under Rattus norvegicus [27] it was 0%. In addition, the results for the IC50 (in assay [1]; against Glutathione reductase [2]; in assay [3]) were 46 nM, “Not Active” and “Not Active”, respectively.
